Measurements from patent US9434743B2, “Indazole derivatives” (TAKEDA PHARMACEUTICAL COMPANY LIMITED, priority 2012, dated 2016).

How the values were obtained:
human MetAP2 enzyme [1] = target: T1, human MetAP2 enzyme (Homo sapiens, UniProt P50579); experiment: MetAP2 enzyme assay, enzyme complexed with manganese ions; conditions: MetAP2 Mn pIC50, MetAP2 enzyme complexed with manganese ions; Met-AMC substrate at Km
human MetAP2 enzyme [2] = target: T1, human MetAP2 enzyme; experiment: MetAP2 enzyme assay, enzyme complexed with cobalt ions; conditions: MetAP2 Co pIC50, MetAP2 enzyme complexed with cobalt ions; Met-AMC substrate at Km

T1 sequence (P50579 whole entry): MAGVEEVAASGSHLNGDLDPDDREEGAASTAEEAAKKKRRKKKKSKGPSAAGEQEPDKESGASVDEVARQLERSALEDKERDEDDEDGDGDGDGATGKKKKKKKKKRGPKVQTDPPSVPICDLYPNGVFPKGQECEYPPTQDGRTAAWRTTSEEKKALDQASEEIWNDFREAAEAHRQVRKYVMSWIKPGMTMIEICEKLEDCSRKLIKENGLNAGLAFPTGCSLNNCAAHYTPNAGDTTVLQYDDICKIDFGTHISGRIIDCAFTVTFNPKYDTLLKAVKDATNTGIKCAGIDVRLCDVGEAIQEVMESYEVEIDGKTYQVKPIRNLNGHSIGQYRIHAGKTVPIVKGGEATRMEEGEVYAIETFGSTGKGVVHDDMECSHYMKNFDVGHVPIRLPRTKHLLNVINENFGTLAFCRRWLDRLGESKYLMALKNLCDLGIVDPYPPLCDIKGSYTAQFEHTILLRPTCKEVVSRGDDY

SMILES | IC50 (human MetAP2 enzyme [1]) | IC50 (human MetAP2 enzyme [2])
OCc1ccc(-c2cc(C(F)(F)F)cc3[nH]ncc23)cc1 [Example 11, (4-(6-(trifluoromethyl)-1H-indazol-4-yl)phenyl)methanol] | 3.16 nM | 31.6 nM
Cc1cc(=O)n(C)cc1-c1cc(C(F)(F)F)cc2[nH]ncc12 [Example 403, 1,4-dimethyl-5-(6-(trifluoromethyl)-1H-indazol-4-yl)pyridin-2(1H)-one] | 10 nM | 63.1 nM
O=S(=O)(NCCO)c1ccc(-c2cc(C(F)(F)F)cc3[nH]ncc23)cn1 [Example 378, N-(2-hydroxyethyl)-5-(6-(trifluoromethyl)-1H-indazol-4-yl)pyridine-2-sulfonamide] | 5.01 nM | 63.1 nM
FC(F)(F)c1cc(-c2ccnc3ccccc23)c2cn[nH]c2c1 [Example 112, 4-(6-(trifluoromethyl)-1H-indazol-4-yl)quinoline] | 12.6 nM | 50.1 nM
NC(=O)c1cccc(-c2cc(C(F)(F)F)cc3[nH]ncc23)c1 [Example 18, 3-(6-(trifluoromethyl)-1H-indazol-4-yl)benzamide] | 3.16 nM | 25.1 nM
CN(C)C(=O)c1cc(F)cc(-c2cc(C(F)(F)F)cc3[nH]ncc23)c1 [Example 115, 3-fluoro-N,N-dimethyl-5-(6-(trifluoromethyl)-1H-indazol-4-yl)benzamide] | 10 nM | 158 nM
Cn1cc(-c2cc(C(F)(F)F)cc3[nH]ncc23)c(=O)n(CCN2CCOCC2)c1=O [Example 313, 1-methyl-3-(2-morpholinoethyl)-5-(6-(trifluoromethyl)-1H-indazol-4-yl)pyrimidine-2,4(1H,3H)-dione] | 25.1 nM | 1580 nM
FC(F)(F)c1cc(-c2cccc3cc[nH]c23)c2cn[nH]c2c1 [Example 76, 4-(1H-indol-7-yl)-6-(trifluoromethyl)-1H-indazole] | 39.8 nM | 398 nM
CN(C)C(=O)c1c[nH]c(=O)c(-c2cc(C(F)(F)F)cc3[nH]ncc23)c1 [Example 334, N,N-dimethyl-6-oxo-5-(6-(trifluoromethyl)-1H-indazol-4-yl)-1,6-dihydropyridine-3-carboxamide] | 20 nM | 794 nM
Nc1ncc(F)cc1-c1cc(C(F)(F)F)cc2[nH]ncc12 [Example 194, 5-fluoro-3-(6-(trifluoromethyl)-1H-indazol-4-yl)pyridin-2-amine] | 10 nM | 158 nM
COC(=O)c1ccc(OC)c(-c2cc(C(F)(F)F)cc3[nH]ncc23)c1 [Example 263, methyl 4-methoxy-3-(6-(trifluoromethyl)-1H-indazol-4-yl)benzoate] | 15.8 nM | 20 nM
Cn1ncc2cc(-c3cc(C(F)(F)F)cc4[nH]ncc34)ccc21 [Example 36, 1′-methyl-6-(trifluoromethyl)-1H,1′H-4,5′-biindazole] | 6.31 nM | 25.1 nM
CC(=O)Nc1cccnc1-c1cc(C(F)(F)F)cc2[nH]ncc12 [Example 218, N-(2-(6-(trifluoromethyl)-1H-indazol-4-yl)pyridin-3-yl)acetamide] | 251 nM | 2000 nM
NC(=O)c1ccc(-c2cc(C(F)(F)F)cc3[nH]ncc23)cn1 [Example 251, 5-(6-(trifluoromethyl)-1H-indazol-4-yl)picolinamide] | 5.01 nM | 63.1 nM
CCn1nc(C)c(-c2cc(C(F)(F)F)cc3[nH]ncc23)c1C [Example 168, 4-(1-ethyl-3,5-dimethyl-1H-pyrazol-4-yl)-6-(trifluoromethyl)-1H-indazole] | 6.31 nM | 25.1 nM
FC(F)(F)c1cc(-c2cnn(CCN3CCOCC3)c2)c2cn[nH]c2c1 [Example 74, 4-(2-(4-(6-(trifluoromethyl)-1H-indazol-4-yl)-1H-pyrazol-1-yl)ethyl)morpholine] | 3.98 nM | 50.1 nM
Cn1ccc2c(-c3cc(C(F)(F)F)cc4[nH]ncc34)cccc21 [Example 77, 4-(1-methyl-1H-indol-4-yl)-6-(trifluoromethyl)-1H-indazole] | 6.31 nM | 79.4 nM
Cc1cc(-c2cc(C(F)(F)F)cc3[nH]ncc23)n(C)n1 [Example 126, 4-(1,3-dimethyl-1H-pyrazol-5-yl)-6-(trifluoromethyl)-1H-indazole] | 7.94 nM | 50.1 nM
NC(=O)c1ccc(-c2cc(C(F)(F)F)cc3[nH]ncc23)cc1 [Example 7, 4-(6-(trifluoromethyl)-1H-indazol-4-yl)benzamide] | 5.01 nM | 25.1 nM
CCNC(=O)c1cccc(-c2cc(C(F)(F)F)cc3[nH]ncc23)c1 [Example 88, N-ethyl-3-(6-(trifluoromethyl)-1H-indazol-4-yl)benzamide] | 3.98 nM | 79.4 nM
C[C@@H](O)CNC(=O)c1c[nH]c(=O)c(-c2cc(C(F)(F)F)cc3[nH]ncc23)c1 [Example 336, (R)—N-(2-hydroxypropyl)-6-oxo-5-(6-(trifluoromethyl)-1H-indazol-4-yl)-1,6-dihydropyridine-3-carboxamide] | 10 nM | 631 nM

SMILES | IC50 (human MetAP2 enzyme [1]) | IC50 (human MetAP2 enzyme [2])
Cc1nccc(N)c1-c1cc(C(F)(F)F)cc2[nH]ncc12 [Example 252, 2-methyl-3-(6-(trifluoromethyl)-1H-indazol-4-yl)pyridin-4-amine] | 100 nM | 1580 nM
Oc1ncccc1-c1cc(C(F)(F)F)cc2[nH]ncc12 [Example 210, 3-(6-(trifluoromethyl)-1H-indazol-4-yl)pyridin-2-ol] | 12.6 nM | 631 nM
Cn1cc(-c2cc(C(F)(F)F)cc3[nH]ncc23)c(N)n1 [Example 144, 1-methyl-4-(6-(trifluoromethyl)-1H-indazol-4-yl)-1H-pyrazol-3-amine] | 20 nM | 200 nM
Cc1cn(C)c(-c2cc(C(F)(F)F)cc3[nH]ncc23)n1 [Example 163, 4-(1,4-dimethyl-1H-imidazol-2-yl)-6-(trifluoromethyl)-1H-indazole] | 12.6 nM | 794 nM
NS(=O)(=O)c1ccc(-c2cc(C(F)(F)F)cc3[nH]ncc23)c(Cl)c1 [Example 351, 3-chloro-4-(6-(trifluoromethyl)-1H-indazol-4-yl)benzenesulfonamide] | 12.6 nM | 39.8 nM
COc1nc(C(N)=O)ccc1-c1cc(C(F)(F)F)cc2[nH]ncc12 [Example 391, 6-methoxy-5-(6-(trifluoromethyl)-1H-indazol-4-yl)picolinamide] | 5.01 nM | 39.8 nM
Cc1ncsc1-c1cc(C(F)(F)F)cc2[nH]ncc12 [Example 177, 4-methyl-5-(6-(trifluoromethyl)-1H-indazol-4-yl)thiazole] | 3.98 nM | 50.1 nM
O=C(NCCO)c1ccc(-c2cc(C(F)(F)F)cc3[nH]ncc23)cc1 [Example 130, N-(2-hydroxyethyl)-4-(6-(trifluoromethyl)-1H-indazol-4-yl)benzamide] | 1.58 nM | 7.94 nM
O=C1Cc2ccc(-c3cc(C(F)(F)F)cc4[nH]ncc34)cc2N1 [Example 239, 6-(6-(trifluoromethyl)-1H-indazol-4-yl)indolin-2-one] | 5.01 nM | 15.8 nM
NC(=O)c1ccc(F)c(-c2cc(C(F)(F)F)cc3[nH]ncc23)c1 [Example 326, 4-fluoro-3-(6-(trifluoromethyl)-1H-indazol-4-yl)benzamide] | 12.6 nM | 31.6 nM
COc1nccc(-c2cc(C(F)(F)F)cc3[nH]ncc23)c1Cl [Example 124, 4-(3-chloro-2-methoxypyridin-4-yl)-6-(trifluoromethyl)-1H-indazole] | 15.8 nM | 63.1 nM
CC(C)(C)C(=O)Nc1ncccc1-c1cc(C(F)(F)F)cc2[nH]ncc12 [Example 73, N-(3-(6-(trifluoromethyl)-1H-indazol-4-yl)pyridin-2-yl)pivalamide] | 79.4 nM | 200 nM
CS(=O)(=O)c1ccccc1-c1cc(C(F)(F)F)cc2[nH]ncc12 [Example 365, 4-(2-(methylsulfonyl)phenyl)-6-(trifluoromethyl)-1H-indazole] | 79.4 nM | 1580 nM
Cn1cc(-c2cc(C(F)(F)F)cc3[nH]ncc23)c(=O)n(CCO)c1=O [Example 303, 3-(2-hydroxyethyl)-1-methyl-5-(6-(trifluoromethyl)-1H-indazol-4-yl)pyrimidine-2,4(1H,3H)-dione] | 12.6 nM | 1000 nM
COc1ncc(-c2cc(C(F)(F)F)cc3[nH]ncc23)cc1C(=O)N1CCN(C)CC1 [Example 288, (2-methoxy-5-(6-(trifluoromethyl)-1H-indazol-4-yl)pyridin-3-yl)(4-methylpiperazin-1-yl)methanone] | 5.01 nM | 31.6 nM
Nc1nc(Cl)ncc1-c1cc(C(F)(F)F)cc2[nH]ncc12 [Example 191, 2-chloro-5-(6-(trifluoromethyl)-1H-indazol-4-yl)pyrimidin-4-amine] | 25.1 nM | 794 nM
FC(F)(F)c1cc(-c2ncn3ccccc23)c2cn[nH]c2c1 [Example 154, 4-(imidazo[1,5-a]pyridin-1-yl)-6-(trifluoromethyl)-1H-indazole] | 15.8 nM | 100 nM
Cc1nn(CC(=O)N(C)C)c(C)c1-c1cc(C(F)(F)F)cc2[nH]ncc12 [Example 363, 2-(3,5-dimethyl-4-(6-(trifluoromethyl)-1H-indazol-4-yl)-1H-pyrazol-1-yl)-N,N-dimethylacetamide] | 15.8 nM | 79.4 nM
O=c1[nH]c2ccc(-c3cc(C(F)(F)F)cc4[nH]ncc34)cc2[nH]1 [Example 237, 5-(6-(trifluoromethyl)-1H-indazol-4-yl)-1H-benzo[d]imidazol-2(3H)-one] | 2.51 nM | 12.6 nM
NS(=O)(=O)c1ccc(-c2cc(C(F)(F)F)cc3[nH]ncc23)cc1Cl [Example 343, 2-chloro-4-(6-(trifluoromethyl)-1H-indazol-4-yl)benzenesulfonamide] | 6.31 nM | 100 nM
